Data taken from PubChem BioAssay AID1259407 (Chemical Carcinogenesis Research Information System (CCRIS), 2018).
Activity calls are given as the source filed them. The rule behind the calls is not given here.

Tested on: CCRIS mutagenicity, Ames/micronucleus/aberration tests
Experiment: CCRIS mutagenicity studies

N#Cc1ccccc1
mutagenic call (End Point: IN VITRO MICRONUCLEUS, Test System: CHINESE HAMSTER V79, Metabolic Activation: NONE): active; positive | mutagenic call (Test System: AMES SALMONELLA TYPHIMURIUM, Strain/Indicator: TA97, Metabolic Activation: HAMSTER, LIVER, S-9, AROCLOR 1254 (10 OR 30%), Method: PREINCUBATION): inactive; negative | mutagenic call (Test System: AMES SALMONELLA TYPHIMURIUM, Strain/Indicator: TA97, Metabolic Activation: NONE, Method: PREINCUBATION): inactive; negative | mutagenic call (Test System: AMES SALMONELLA TYPHIMURIUM, Strain/Indicator: TA97, Metabolic Activation: RAT, LIVER, S-9, AROCLOR 1254 (10 OR 30%), Method: PREINCUBATION): inactive; negative | mutagenic call (Test System: AMES SALMONELLA TYPHIMURIUM, Strain/Indicator: TA98, Metabolic Activation: HAMSTER, LIVER, S-9, AROCLOR 1254 (10 OR 30%), Method: PREINCUBATION): inactive; negative | mutagenic call (Test System: AMES SALMONELLA TYPHIMURIUM, Strain/Indicator: TA98, Metabolic Activation: HAMSTER, LIVER, S-9, AROCLOR 1254, Method: STANDARD PLATE): inactive; negative | mutagenic call (Test System: AMES SALMONELLA TYPHIMURIUM, Strain/Indicator: TA98, Metabolic Activation: NONE, Method: PREINCUBATION): inactive; negative | mutagenic call (Test System: AMES SALMONELLA TYPHIMURIUM, Strain/Indicator: TA98, Metabolic Activation: NONE, Method: STANDARD PLATE): inactive; negative | mutagenic call (Test System: AMES SALMONELLA TYPHIMURIUM, Strain/Indicator: TA98, Metabolic Activation: RAT LIVER S-9, PHENOBARBITAL AND BETA-NAPHTHOFLAVONE, Method: PREINCUBATION): inactive; negative | mutagenic call (Test System: AMES SALMONELLA TYPHIMURIUM, Strain/Indicator: TA98, Metabolic Activation: RAT, LIVER, S-9, AROCLOR 1254 (10 OR 30%), Method: PREINCUBATION): inactive; negative | mutagenic call (Test System: AMES SALMONELLA TYPHIMURIUM, Strain/Indicator: TA98, Metabolic Activation: RAT, LIVER, S-9, AROCLOR 1254, Method: STANDARD PLATE): inactive; negative | mutagenic call (Test System: AMES SALMONELLA TYPHIMURIUM, Strain/Indicator: TA100, Metabolic Activation: HAMSTER, LIVER, S-9, AROCLOR 1254 (10 OR 30%), Method: PREINCUBATION): inactive; negative | mutagenic call (Test System: AMES SALMONELLA TYPHIMURIUM, Strain/Indicator: TA100, Metabolic Activation: HAMSTER, LIVER, S-9, AROCLOR 1254, Method: STANDARD PLATE): inactive; negative | mutagenic call (Test System: AMES SALMONELLA TYPHIMURIUM, Strain/Indicator: TA100, Metabolic Activation: NONE, Method: PREINCUBATION): inactive; negative | mutagenic call (Test System: AMES SALMONELLA TYPHIMURIUM, Strain/Indicator: TA100, Metabolic Activation: NONE, Method: STANDARD PLATE): inactive; negative | mutagenic call (Test System: AMES SALMONELLA TYPHIMURIUM, Strain/Indicator: TA100, Metabolic Activation: RAT LIVER S-9, PHENOBARBITAL AND BETA-NAPHTHOFLAVONE, Method: PREINCUBATION): inactive; negative | mutagenic call (Test System: AMES SALMONELLA TYPHIMURIUM, Strain/Indicator: TA100, Metabolic Activation: RAT, LIVER, S-9, AROCLOR 1254 (10 OR 30%), Method: PREINCUBATION): inactive; negative | mutagenic call (Test System: AMES SALMONELLA TYPHIMURIUM, Strain/Indicator: TA100, Metabolic Activation: RAT, LIVER, S-9, AROCLOR 1254, Method: STANDARD PLATE): inactive; negative | mutagenic call (Test System: AMES SALMONELLA TYPHIMURIUM, Strain/Indicator: TA1535, Metabolic Activation: HAMSTER, LIVER, S-9, AROCLOR 1254 (10 OR 30%), Method: PREINCUBATION): inactive; negative | mutagenic call (Test System: AMES SALMONELLA TYPHIMURIUM, Strain/Indicator: TA1535, Metabolic Activation: HAMSTER, LIVER, S-9, AROCLOR 1254, Method: STANDARD PLATE): inactive; negative | mutagenic call (Test System: AMES SALMONELLA TYPHIMURIUM, Strain/Indicator: TA1535, Metabolic Activation: NONE, Method: PREINCUBATION): inactive; negative | mutagenic call (Test System: AMES SALMONELLA TYPHIMURIUM, Strain/Indicator: TA1535, Metabolic Activation: NONE, Method: STANDARD PLATE): inactive; negative | mutagenic call (Test System: AMES SALMONELLA TYPHIMURIUM, Strain/Indicator: TA1535, Metabolic Activation: RAT LIVER S-9, PHENOBARBITAL AND BETA-NAPHTHOFLAVONE, Method: PREINCUBATION): inactive; negative | mutagenic call (Test System: AMES SALMONELLA TYPHIMURIUM, Strain/Indicator: TA1535, Metabolic Activation: RAT, LIVER, S-9, AROCLOR 1254 (10 OR 30%), Method: PREINCUBATION): inactive; negative | mutagenic call (Test System: AMES SALMONELLA TYPHIMURIUM, Strain/Indicator: TA1535, Metabolic Activation: RAT, LIVER, S-9, AROCLOR 1254, Method: STANDARD PLATE): inactive; negative | mutagenic call (Test System: AMES SALMONELLA TYPHIMURIUM, Strain/Indicator: TA1537, Metabolic Activation: HAMSTER, LIVER, S-9, AROCLOR 1254, Method: STANDARD PLATE): inactive; negative | mutagenic call (Test System: AMES SALMONELLA TYPHIMURIUM, Strain/Indicator: TA1537, Metabolic Activation: NONE, Method: PREINCUBATION): inactive; negative | mutagenic call (Test System: AMES SALMONELLA TYPHIMURIUM, Strain/Indicator: TA1537, Metabolic Activation: NONE, Method: STANDARD PLATE): inactive; negative | mutagenic call (Test System: AMES SALMONELLA TYPHIMURIUM, Strain/Indicator: TA1537, Metabolic Activation: RAT LIVER S-9, PHENOBARBITAL AND BETA-NAPHTHOFLAVONE, Method: PREINCUBATION): inactive; negative | mutagenic call (Test System: AMES SALMONELLA TYPHIMURIUM, Strain/Indicator: TA1537, Metabolic Activation: RAT, LIVER, S-9, AROCLOR 1254, Method: STANDARD PLATE): inactive; negative | mutagenic call (Test System: AMES SALMONELLA TYPHIMURIUM, Strain/Indicator: TA1538, Metabolic Activation: HAMSTER, LIVER, S-9, AROCLOR 1254, Method: STANDARD PLATE): inactive; negative | mutagenic call (Test System: AMES SALMONELLA TYPHIMURIUM, Strain/Indicator: TA1538, Metabolic Activation: NONE, Method: STANDARD PLATE): inactive; negative | mutagenic call (Test System: AMES SALMONELLA TYPHIMURIUM, Strain/Indicator: TA1538, Metabolic Activation: RAT, LIVER, S-9, AROCLOR 1254, Method: STANDARD PLATE): inactive; negative | mutagenic call (Test System: E. COLI, Strain/Indicator: WP2UVRA, Metabolic Activation: NONE, Method: PREINCUBATION): inactive; negative | mutagenic call (Test System: E. COLI, Strain/Indicator: WP2UVRA, Metabolic Activation: RAT LIVER S-9, PHENOBARBITAL AND BETA-NAPHTHOFLAVONE, Method: PREINCUBATION): inactive; negative | mutagenic call (Test System: MOUSE LYMPHOMA, Strain/Indicator: L5178Y (TK+/TK-), Metabolic Activation: NONE, Method: SUSPENSION/PLATE): inactive; negative. reevaluation of results: negative | mutagenic call (Test System: MOUSE LYMPHOMA, Strain/Indicator: L5178Y (TK+/TK-), Metabolic Activation: RAT, LIVER, S-9, AROCLOR 1254, Method: SUSPENSION/PLATE): inactive; negative. reevaluation of results: negative

C[C@]12CC[C@@H]3c4ccc(O)cc4C[C@@H](CCCCCCCCCS(=O)CCCC(F)(F)C(F)(F)F)[C@H]3[C@@H]1CC[C@@H]2O (stereo partly drawn)
mutagenic call (Test System: CHINESE HAMSTER V-79, Strain/Indicator: V-79 (HPRT)/6-THIOGUANINE, Metabolic Activation: NONE, Method: SUSPENSION/PLATE): active; positive
